Assay results: BindingDB's records for doi:10.1111/j.1747-0285.2009.00924.x (Nankai University, 2010)

Biological target: T1, Ketol-acid reductoisomerase (NADP(+)) (Escherichia coli (strain K12), UniProt P05793)
T1 sequence (P05793 whole entry): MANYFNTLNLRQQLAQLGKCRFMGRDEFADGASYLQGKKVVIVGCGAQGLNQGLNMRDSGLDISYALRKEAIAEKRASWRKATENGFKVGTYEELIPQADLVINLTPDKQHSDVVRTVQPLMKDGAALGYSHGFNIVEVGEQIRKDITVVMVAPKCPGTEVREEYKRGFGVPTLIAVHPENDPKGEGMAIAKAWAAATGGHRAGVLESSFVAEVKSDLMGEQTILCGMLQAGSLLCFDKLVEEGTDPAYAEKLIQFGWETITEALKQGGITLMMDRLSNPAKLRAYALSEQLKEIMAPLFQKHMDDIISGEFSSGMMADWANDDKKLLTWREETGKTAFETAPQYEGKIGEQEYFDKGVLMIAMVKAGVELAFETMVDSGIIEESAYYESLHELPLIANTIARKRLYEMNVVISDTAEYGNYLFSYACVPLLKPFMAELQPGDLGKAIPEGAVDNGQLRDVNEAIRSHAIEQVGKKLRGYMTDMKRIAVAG
Assay: Enzyme Inhibition Assay
Conditions: pH 8; 30 °C
Description: Inhibition of E. coli KARI (ketol-acid reductoisomerase) is time dependent, and activity was measured by the decrease in A340 at 30 C in solutions containing 0.2 mM […], 1 mM MgCl2, substrate 2-acetolactate and inhibitor in 0.1 M phosphate buffer at pH 8.0.

Row | SMILES | Ki
1 | CC(C)N(O)C(=O)C(=O)O [N-hydroxy-N-isopropyloxamate, IpOHA] | 2.75 µM
2 | N#CC1(C(=O)O)CC1 [Cyclopropane, 4] | 95.3 µM
3 | O=C(O)C1(C(=O)O)CC1 [Cyclopropane, 3] | 76.6 µM
4 | NC(=O)C1(C(=O)O)CC1 [Cyclopropane, 5] | 31.2 µM
